Test [1] in a line: Displacement of [3H]-(+)-MK801 from pig brain phencyclidine binding site of NMDA receptor by scintillation counting. More on the design: species or system Sus scrofa. A general note: Displacement assays read how much labelled ligand stays bound in the presence of the test substance.
The subject of test [2] is Sigma-2 receptor (Rattus norvegicus). Nature of the test: Displacement of [3H]-di-o-tolylguanidine from sigma-2 receptor in rat liver homogenate at 1 uM by liquid scintillation counting.
In test [3] the target is Sigma-2 receptor (Rattus norvegicus). Kind of test: Displacement of [3H]-di-o-tolylguanidine from sigma-2 receptor in rat liver homogenate by liquid scintillation counting.
For the next test, the species on record is Sus scrofa. Nature of the test: Displacement of [3H]-(+)-MK801 from pig brain phencyclidine binding site of NMDA receptor at 1 uM by scintillation counting.

The structures appear in SMILES notation.

Our source for the Ki and inhibition values is ChEMBL document CHEMBL3217603, “Synthesis and NMDA receptor affinity of dexoxadrol analogues with modifications in position 4 of the piperidine ring” (Medchemcomm, 2010).

The compound `O=C1CCN[C@H]([C@H]2COC(c3ccccc3)(c3ccccc3)O2)C1` (racemic) gave a Ki in test [1] of 470 nM.
Compound `O[C@H]1CCN[C@H]([C@H]2COC(c3ccccc3)(c3ccccc3)O2)C1` (racemic) had an inhibition in test [2] of 13%. The same compound came in with a Ki in test [1] of 44 nM.
Regarding `CN[C@H]1CCN[C@H]([C@@H]2COC(c3ccccc3)(c3ccccc3)O2)C1` (racemic), in test [3], the Ki was determined as 3670 nM. The compound further registered an inhibition in the test filed under Sus scrofa of 16%.
`O[C@@H]1CCN[C@H]([C@H]2COC(c3ccccc3)(c3ccccc3)O2)C1` (racemic) returned an inhibition in test [2] of 2%. For the same compound, in test [1], the Ki amounted to 527 nM.
The matching figures for `CO[C@H]1CCN[C@H]([C@H]2COC(c3ccccc3)(c3ccccc3)O2)C1` (racemic): 9% and 981 nM.
The compound `O=C(OCc1ccccc1)N1CC[C@H](NCc2ccccc2)C[C@H]1[C@@H]1COC(c2ccccc2)(c2ccccc2)O1` (racemic) came in with a Ki in test [3] of 442 nM. In the test filed under Sus scrofa, this compound showed an inhibition of 30%.
Consider `CN[C@@H]1CCN(C(=O)OCc2ccccc2)[C@H]([C@@H]2COC(c3ccccc3)(c3ccccc3)O2)C1` (racemic), for which the inhibition in test [2] was determined as 28%; in the test listed under Sus scrofa it was 7%.
Taken in the same sequence, the figures for `CN[C@@H]1CCN(C(=O)OCc2ccccc2)[C@H]([C@H]2COC(c3ccccc3)(c3ccccc3)O2)C1` (racemic) were 42% and 10%.
The matching figures for `CN[C@@H]1CCN[C@H]([C@@H]2COC(c3ccccc3)(c3ccccc3)O2)C1` (racemic): 44% and 16%.
The matching figures for `CN[C@@H]1CCN[C@H]([C@H]2COC(c3ccccc3)(c3ccccc3)O2)C1` (racemic): 12% and 40%.
On to `CN[C@H]1CCN(C(=O)OCc2ccccc2)[C@H]([C@@H]2COC(c3ccccc3)(c3ccccc3)O2)C1` (racemic), for which the inhibition came out at 18% in test [2] and 7% in the test listed under Sus scrofa.
The matching figures for `CN[C@H]1CCN(C(=O)OCc2ccccc2)[C@H]([C@H]2COC(c3ccccc3)(c3ccccc3)O2)C1` (racemic): 35% and 6%.
Taken in the same sequence, the figures for `CN[C@H]1CCN[C@H]([C@H]2COC(c3ccccc3)(c3ccccc3)O2)C1` (racemic) were 37% and 30%.
`CO[C@@H]1CCN[C@H]([C@@H]2COC(c3ccccc3)(c3ccccc3)O2)C1` (racemic): the values for the inhibition (in test [2]; in the test filed under Sus scrofa) were 18% and 37%, respectively.
The matching figures for `CO[C@@H]1CCN[C@H]([C@H]2COC(c3ccccc3)(c3ccccc3)O2)C1` (racemic): 5% and 49%.
The matching figures for `CO[C@H]1CCN[C@H]([C@@H]2COC(c3ccccc3)(c3ccccc3)O2)C1` (racemic): 23% and 21%.
Taken in the same sequence, the figures for `N[C@@H]1CCN[C@H]([C@@H]2COC(c3ccccc3)(c3ccccc3)O2)C1` (racemic) were 15% and 26%.
Consider `N[C@@H]1CCN[C@H]([C@H]2COC(c3ccccc3)(c3ccccc3)O2)C1` (racemic), for which the inhibition in test [2] amounted to 26%; in the test filed under Sus scrofa, 44%.
The matching figures for `N[C@H]1CCN[C@H]([C@@H]2COC(c3ccccc3)(c3ccccc3)O2)C1` (racemic): 13% and 25%.
Taken in the same sequence, the figures for `N[C@H]1CCN[C@H]([C@H]2COC(c3ccccc3)(c3ccccc3)O2)C1` (racemic) were 17% and 17%.
Taken in the same sequence, the figures for `O=C(OCc1ccccc1)N1CC[C@@H](NCc2ccccc2)C[C@H]1[C@@H]1COC(c2ccccc2)(c2ccccc2)O1` (racemic) were 23% and 8%.
For the compound `O=C(OCc1ccccc1)N1CC[C@@H](NCc2ccccc2)C[C@H]1[C@H]1COC(c2ccccc2)(c2ccccc2)O1` (racemic), the values for the inhibition (in test [2]; in the test filed under Sus scrofa) were 14% and 20%, respectively.
Taken in the same sequence, the figures for `O=C(OCc1ccccc1)N1CC[C@H](NCc2ccccc2)C[C@H]1[C@H]1COC(c2ccccc2)(c2ccccc2)O1` (racemic) were 8% and 15%.
In turn, `O=C1CCN[C@H]([C@@H]2COC(c3ccccc3)(c3ccccc3)O2)C1` (racemic) yielded an inhibition in the test listed under Sus scrofa of 84%.
`O[C@@H]1CCN[C@H]([C@@H]2COC(c3ccccc3)(c3ccccc3)O2)C1` (racemic): the inhibition (in test [2]; in the test listed under Sus scrofa) was 0% each time.
Consider `O[C@H]1CCN[C@H]([C@@H]2COC(c3ccccc3)(c3ccccc3)O2)C1` (racemic), for which the inhibition was 30% in test [2] and 3% in the test listed under Sus scrofa.

In general, Ki refers to the dissociation constant of the complex between target and ligand, obtained from inhibition or displacement. A lower Ki goes with a stronger hold on the target. A word on the inhibition: it is the relative decrease from the control value, in per cent. A low value points to a weak effect.
